Where a name gives a salt, the structure may show the parent alone.
Experiments:
mouse [1] = test: mouse locomotor activity test (physical dependence liability); type: in vivo; settings: group of ten mice
Protocol: A high correlation has been established between the degree of physical dependence liability of a compound and its ability to elicit mouse locomotor activity; Cf. Goldstein et al., The Journal of Pharmacology and Experimental Therapeutics 169, 175-184 (1969); Rethy et al., The Journal of Pharmacology and Experimental Therapeutics 176, 472-479 (1971); and Brase et al., The Journal of Pharmacology and Experimental Therapeutics 201(2), 368-374 (1977).
Mouse locomotor activity is measured using cylindrical cages of wire mesh 2 inches high and 11 inches in diameter. Six cages are enclosed in a ventilated, sound-attenuated chamber having uniform lighting. A light beam is passed through the center of the cage to a photocell on the opposite side. Two mice are placed in each cage for one hour to become acclimated to the surroundings. Five pairs of mice then are injected subcutaneously with a predetermined dose of the test compound, the remaining pair receiving saline carrier free of test compound. The mice are returned to their respective cages for three hours. The number of counts per each 15 minute period as well as the total number over the three hour period are recorded. Each interruption of the light beam constitutes a count.
The following Table II reflects a mean of the total counts for each group of ten mice tested using a particular compound and dose level.

mouse [2] = test: mouse hot plate test (analgesic activity); type: in vivo; settings: subcutaneous injection, tested 15 minutes after administration, hot plate 52° C.
Protocol: In this test, an upright acrylic cylinder comprising, as its base, a hot plate surface which is maintained at 52° C. is used. A mouse is given, by subcutaneous injection, a predetermined amount of test compound dissolved or suspended in a suitable carrier, and, 15 minutes after administration of the test compound, the mouse is placed on the hot plate surface. The latency in seconds until the mouse jumps from the hot plate surface is measured. […] This must occur in a dose range which produces no motor incoordination or incapacitation. The following Table I records ED50 results obtained from this test. By the term "ED50 " is meant that dose which produces analgesia in 50% of the mice tested. Analgesia is defined as a response latency in the presence of test compound that is equal to or greater than the control response latency plus two standard deviations. The percent analgesia data are converted to probits, and the ED50 is calculated by regression analysis of the dose-response data. Each dose response curve must have at least four points, and each point is determined using data from a minimum of ten treated mice and ten control mice.

[3] = Dose 128 mg./kg. subcutaneously

| Compound | mean of the total counts, locomotor activity over three hours (mouse [1]; Dose 4 mg./kg. subcutaneously) | mean of the total counts, locomotor activity over three hours (mouse [1]; Dose 8 mg./kg. subcutaneously) | mean of the total counts, locomotor activity over three hours (mouse [1]; Dose 16 mg./kg. subcutaneously) | mean of the total counts, locomotor activity over three hours (mouse [1]; Dose 32 mg./kg. subcutaneously) | mean of the total counts, locomotor activity over three hours (mouse [1]; Dose 64 mg./kg. subcutaneously) | mean of the total counts, locomotor activity over three hours (mouse [1]; [3]) | Analgesic Activity, Hot Plate Test, ED50 (mouse [2]) |
| --- | --- | --- | --- | --- | --- | --- | --- |
| CCN(C(=O)CNC(=O)[C@@H](C)NC(=O)[C@H](Cc1ccc(O)cc1)NC)[C@@H](Cc1cccc(Cl)c1)C(N)=O [Example 6, L-(N-Methyl)tyrosyl-D-alanyl-glycyl-L-(N-ethyl)-m-chlorophenylalanine Amide, Acetate Salt] | 148 counts | 304 counts | 796 counts | 1978 counts | 4477 counts | 3476 counts | 1.8 µg/kg |
| CCN(C(=O)CNC(=O)[C@@H](C)NC(=O)[C@H](Cc1ccc(O)cc1)NC)[C@@H](Cc1cccc(C)c1)C(N)=O [Example 4, L-(N-Methyl)tyrosyl-D-alanyl-glycyl-L-(N-ethyl)-m-methyl-phenylalanine Amide, Acetate Salt] | 173 counts | 255 counts | 537 counts | 1176 counts | 3231 counts | 3852 counts | 3 µg/kg |
| CCN(C(=O)CNC(=O)[C@@H](C)NC(=O)[C@@H](N)Cc1ccc(O)cc1)[C@@H](Cc1cccc(I)c1)C(N)=O [Example 7, L-Tyrosyl-D-alanyl-glycyl-L-(N-ethyl)-m-iodophenylalanine Amide, Acetate Salt] | 178 counts | 174 counts | 363 counts | 852 counts | 1630 counts | 2871 counts | 1.9 µg/kg |
| L-Tyrosyl-D-alanyl-glycyl-L-(N-ethyl)-m-bromophenylalanine Amide, Acetate Salt [Example 3] |  | 200 counts | 512 counts | 1092 counts | 2820 counts |  | 4.9 µg/kg |
| CCN(C(=O)CNC(=O)[C@@H](C)NC(=O)[C@H](Cc1ccc(O)cc1)NC)[C@@H](Cc1ccc(F)cc1)C(N)=O [Me Et p-F, reference compound] | 431 counts | 1425 counts | 2415 counts | 2033 counts |  |  |  |
| CCN(C(=O)CNC(=O)[C@@H](C)NC(=O)[C@@H](N)Cc1ccc(O)cc1)[C@@H](Cc1cccc(Cl)c1)C(N)=O [Example 5, L-Tyrosyl-D-alanyl-glycyl-L-(N-ethyl)-m-chlorophenylalanine Amide, Acetate Salt] | 125 counts | 613 counts | 819 counts | 2388 counts | 3667 counts | 2807 counts | 0.3 µg/kg |
| CN[C@@H](Cc1ccc(O)cc1)C(=O)N[C@H](C)C(=O)NCC(=O)N(CC1CC1)[C@@H](Cc1cccc(Br)c1)C(N)=O [Example 1, L-(N-Methyl)tyrosyl-D-alanyl-glycyl-L-(N-cyclopropylmethyl)-m-bromophenylalanine Amide, Acetate Salt] | 171 counts | 140 counts | 276 counts | 320 counts | 1888 counts | 2159 counts |  |
| CCN(C(=O)CNC(=O)[C@@H](C)NC(=O)[C@@H](N)Cc1ccc(O)cc1)[C@@H](Cc1ccccc1)C(N)=O [H Et H, reference compound] | 704 counts | 1204 counts | 2916 counts | 3528 counts |  |  |  |
| CCN(C(=O)CNC(=O)[C@@H](C)NC(=O)[C@H](Cc1ccc(O)cc1)NC)[C@@H](Cc1cccc(Br)c1)C(N)=O [Example 2, L-(N-Methyl)tyrosyl-D-alanyl-glycyl-L-(N-ethyl)-m-bromophenylalanine Amide, Acetate Salt] | 142 counts | 235 counts | 358 counts | 701 counts | 2523 counts | 5153 counts | 3 µg/kg |
